In PubChem BioAssay (NCI):
Several values for one entry are separate records, joined by “and”; a condition that tells them apart may be missing. Equal values may be shown once.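 Each compound was tested at five concentrations against cells in 96-well plates for 48 hours. Here, GI50 denotes the concentration required for 50% inhibition of growth. TGI: concentration producing complete growth inhibition.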

How the values were obtained:
Test in all cases: NCI tumour cell line growth inhibition, 48 h
HOP-92 NSCLC = system: HOP-92 NSCLC
SNB-78 CNS = system: SNB-78 CNS
SN12K1 renal = system: SN12K1 renal
SF-295 CNS = system: SF-295 CNS
M19-MEL melanoma = system: M19-MEL melanoma
CAKI-1 renal = system: CAKI-1 renal
DMS 114 small cell lung = system: DMS 114 small cell lung
SNB-19 CNS = system: SNB-19 CNS
SK-MEL-28 melanoma = system: SK-MEL-28 melanoma
SF-539 CNS = system: SF-539 CNS
RPMI-8226 leukemia = system: RPMI-8226 leukemia
KM20L2 colon = system: KM20L2 colon
HCC-2998 colon = system: HCC-2998 colon
SNB-75 CNS = system: SNB-75 CNS
P388 leukemia = system: P388 leukemia
EKVX NSCLC = system: EKVX NSCLC
A549 NSCLC = system: A549 NSCLC
HT29 colon = system: HT29 colon
DMS 273 small cell lung = system: DMS 273 small cell lung
SK-OV-3 ovarian = system: SK-OV-3 ovarian
UACC-62 melanoma = system: UACC-62 melanoma
OVCAR-4 ovarian = system: OVCAR-4 ovarian
SK-MEL-2 melanoma = system: SK-MEL-2 melanoma
NCI-H226 lung = system: NCI-H226 lung
NCI-H460 lung = system: NCI-H460 lung
UO-31 renal = system: UO-31 renal
A498 renal = system: A498 renal
MOLT-4 leukemia = system: MOLT-4 leukemia
K-562 leukemia = system: K-562 leukemia
UACC-257 melanoma = system: UACC-257 melanoma
HL-60(TB) leukemia = system: HL-60(TB) leukemia
NCI-H522 lung = system: NCI-H522 lung
SK-MEL-5 melanoma = system: SK-MEL-5 melanoma
NCI-H23 lung = system: NCI-H23 lung
HOP-18 NSCLC = system: HOP-18 NSCLC
MCF7 breast = system: MCF7 breast
KM12 colon = system: KM12 colon
HOP-62 NSCLC = system: HOP-62 NSCLC
LOX IMVI melanoma = system: LOX IMVI melanoma
SN12C renal = system: SN12C renal
OVCAR-5 ovarian = system: OVCAR-5 ovarian
DLD-1 colon = system: DLD-1 colon
OVCAR-8 ovarian = system: OVCAR-8 ovarian
HCT-15 colon = system: HCT-15 colon
SW-620 colon = system: SW-620 colon
IGROV1 ovarian = system: IGROV1 ovarian
HCT-116 colon = system: HCT-116 colon
U251 CNS = system: U251 CNS
SF-268 CNS = system: SF-268 CNS
RXF 393 renal = system: RXF 393 renal
NCI/ADR-RES ovarian = system: NCI/ADR-RES ovarian
COLO 205 colon = system: COLO 205 colon
CCRF-CEM leukemia = system: CCRF-CEM leukemia
OVCAR-3 ovarian = system: OVCAR-3 ovarian
P388/ADR leukemia = system: P388/ADR leukemia
ACHN renal = system: ACHN renal
MALME-3M melanoma = system: MALME-3M melanoma
LXFL 529 NSCLC = system: LXFL 529 NSCLC
RXF-631 renal = system: RXF-631 renal
TK-10 renal = system: TK-10 renal
XF 498 CNS = system: XF 498 CNS
M14 melanoma = system: M14 melanoma
786-0 renal = system: 786-0 renal
SR leukemia = system: SR leukemia

## CC12CCC3C(CCC4=CC(O)CCC43C=O)C1(O)CCC2c1ccc(=O)oc1 (centres undefined)
HOP-92 NSCLC
  TGI: 40.4 nM
SNB-78 CNS
  GI50: 50 nM
  TGI: 202 nM and 63.5 nM
SN12K1 renal
  GI50: 7.53 nM
  TGI: 28.6 nM and 53.1 nM
SF-295 CNS
  GI50: 50 nM
  TGI: 46.6 nM and 107 nM
M19-MEL melanoma
  GI50: 50 nM
  TGI: 72 nM and 61 nM
CAKI-1 renal
  GI50: 8 nM
  TGI: 62.7 nM
DMS 114 small cell lung
  TGI: 9.96 nM
SNB-19 CNS
  GI50: 50 nM
  TGI: 22.4 nM and 101 nM
SK-MEL-28 melanoma
  GI50: 7.66 nM
  TGI: 140 nM and 104 nM
SF-539 CNS
  GI50: 50 nM
  TGI: 11.5 nM and 51.5 nM
RPMI-8226 leukemia
  GI50: 23.8 nM
  TGI: 237 nM and 273 nM
KM20L2 colon
  GI50: 50 nM
  TGI: 36.5 nM and 56.2 nM
HCC-2998 colon
  GI50: 59.1 nM
  TGI: 66.5 nM and 220 nM
SNB-75 CNS
  GI50: 50 nM
  TGI: 54.4 nM and 52.3 nM
P388 leukemia
  GI50: 80600 nM
EKVX NSCLC
  TGI: 59 nM
A549 NSCLC
  GI50: 4.52 nM
  TGI: 20 nM
HT29 colon
  GI50: 66.7 nM
DMS 273 small cell lung
  TGI: 22.8 nM
SK-OV-3 ovarian
  GI50: 50 nM
  TGI: 40.4 nM and 71.3 nM
UACC-62 melanoma
  GI50: 9.32 nM
  TGI: 32.9 nM and 52.1 nM
OVCAR-4 ovarian
  TGI: 25.3 nM
SK-MEL-2 melanoma
  GI50: 50 nM
  TGI: 48.3 nM and 81.5 nM
NCI-H226 lung
  GI50: 86.6 nM
  TGI: 83.1 nM and 210 nM
NCI-H460 lung
  TGI: 13.1 nM
UO-31 renal
  GI50: 50 nM
  TGI: 127 nM and 57 nM
A498 renal
  GI50: 50 nM
  TGI: 41.8 nM and 113 nM
MOLT-4 leukemia
  GI50: 12.9 nM
  TGI: 40.1 nM
K-562 leukemia
  GI50: 27.4 nM
  TGI: 247 nM and 143 nM
UACC-257 melanoma
  GI50: 50 nM
HL-60(TB) leukemia
  GI50: 50 nM
NCI-H522 lung
  TGI: 7.41 nM
SK-MEL-5 melanoma
  TGI: 20.1 nM
NCI-H23 lung
  TGI: 15.1 nM
HOP-18 NSCLC
  TGI: 46.1 nM
MCF7 breast
  GI50: 4.03 nM
  TGI: 20.9 nM and 72.1 nM
KM12 colon
  GI50: 50 nM
  TGI: 93.5 nM and 83.2 nM
HOP-62 NSCLC
  GI50: 1.58 nM
  TGI: 14.7 nM and 57.3 nM
LOX IMVI melanoma
  GI50: 50 nM
SN12C renal
  GI50: 50 nM
OVCAR-5 ovarian
  GI50: 5.11 nM
DLD-1 colon
  GI50: 7.69 nM
  TGI: 57.1 nM
OVCAR-8 ovarian
  GI50: 50 nM
  TGI: 53.2 nM and 52.6 nM
HCT-15 colon
  GI50: 12.5 nM
  TGI: 107 nM and 62.2 nM
SW-620 colon
  GI50: 9.09 nM
  TGI: 96.7 nM and 62 nM
IGROV1 ovarian
  GI50: 50 nM
  TGI: 93.6 nM and 141 nM
HCT-116 colon
  GI50: 4.53 nM
  TGI: 32.7 nM and 58.3 nM
U251 CNS
  GI50: 50 nM
  TGI: 29.2 nM and 64 nM
SF-268 CNS
  GI50: 1.53 nM
  TGI: 15.4 nM
RXF 393 renal
  GI50: 1.27 nM
  TGI: 8.01 nM
NCI/ADR-RES ovarian
  GI50: 50 nM
  TGI: 196 nM and 53.3 nM
COLO 205 colon
  GI50: 50 nM
  TGI: 59.6 nM and 90.9 nM
CCRF-CEM leukemia
  GI50: 11.5 nM and 50 nM
  TGI: 129 nM and 523 nM
OVCAR-3 ovarian
  TGI: 15.3 nM
P388/ADR leukemia
  GI50: 89000 nM

## COc1cc2c(cc1O)C1C(O)C(O)C=C3CCN(C2)C31 (centres undefined)
HOP-92 NSCLC
  TGI: 5920 nM
SNB-78 CNS
  TGI: 9270 nM
SF-295 CNS
  TGI: 17600 nM
ACHN renal
  TGI: 7870 nM
M19-MEL melanoma
  TGI: 8840 nM
CAKI-1 renal
  TGI: 10100 nM
DMS 114 small cell lung
  TGI: 4330 nM
SNB-19 CNS
  TGI: 10100 nM
SK-MEL-28 melanoma
  TGI: 13900 nM
SF-539 CNS
  TGI: 4680 nM
MALME-3M melanoma
  TGI: 3860 nM
RPMI-8226 leukemia
  TGI: 11700 nM
KM20L2 colon
  TGI: 18300 nM
HCC-2998 colon
  TGI: 8440 nM
SNB-75 CNS
  TGI: 9690 nM
EKVX NSCLC
  TGI: 14800 nM
A549 NSCLC
  TGI: 10500 nM
HT29 colon
  TGI: 18900 nM
DMS 273 small cell lung
  TGI: 8240 nM
SK-OV-3 ovarian
  TGI: 22900 nM
UACC-62 melanoma
  TGI: 3970 nM
LXFL 529 NSCLC
  TGI: 34900 nM
OVCAR-4 ovarian
  TGI: 4840 nM
SK-MEL-2 melanoma
  TGI: 5740 nM
NCI-H226 lung
  TGI: 7070 nM
NCI-H460 lung
  TGI: 10100 nM
RXF-631 renal
  TGI: 28200 nM
UO-31 renal
  TGI: 9040 nM
MOLT-4 leukemia
  TGI: 12200 nM
TK-10 renal
  TGI: 11700 nM
K-562 leukemia
  TGI: > 100000 nM
UACC-257 melanoma
  TGI: 12200 nM
HL-60(TB) leukemia
  TGI: 7530 nM
NCI-H522 lung
  TGI: 4290 nM
SK-MEL-5 melanoma
  TGI: 2950 nM
NCI-H23 lung
  TGI: 6390 nM
HOP-18 NSCLC
  TGI: 8190 nM
KM12 colon
  TGI: 11000 nM
XF 498 CNS
  TGI: 4360 nM
M14 melanoma
  TGI: 4460 nM
HOP-62 NSCLC
  TGI: 10900 nM
LOX IMVI melanoma
  TGI: 8190 nM
SN12C renal
  TGI: 14600 nM
OVCAR-5 ovarian
  TGI: 24600 nM
DLD-1 colon
  TGI: 14200 nM
OVCAR-8 ovarian
  TGI: 9140 nM
HCT-15 colon
  TGI: 25200 nM
SW-620 colon
  TGI: 12600 nM
IGROV1 ovarian
  TGI: 13600 nM
HCT-116 colon
  TGI: 2250 nM
U251 CNS
  TGI: 24200 nM
SF-268 CNS
  TGI: 10500 nM
RXF 393 renal
  TGI: 5420 nM
COLO 205 colon
  TGI: 3140 nM
CCRF-CEM leukemia
  TGI: 72600 nM
786-0 renal
  TGI: 11900 nM
OVCAR-3 ovarian
  TGI: 8120 nM
SR leukemia
  TGI: 5670 nM
